How the values were obtained:
[1] = test system: EP300/CREBBP-dependent H3K18Ac in MCF-7 cells; test: Cellular photouncaging, H3K18Ac Western blot in MCF-7 cells; format: cell-based, human; conditions: MCF-7, 10 or 25 μM
From the text: One potential reason EP300/CREBBP acetyltransferase inhibitors are not actively being evaluated in clinical trials is on-target toxicity.[10] Thus, these molecules may benefit from strategies to direct them more specifically to malignant – as opposed to healthy – tissues. Light-activated drug release provides one potential approach.[38] […] Considering the studies above we wondered: could the high potency of the CPI-1612 scaffold enable conditional release of an active EP300/CREBBP inhibitor? To explore this, we prepared a photocaged CPI-1612 analogue (4) (Fig. 5a). […] Parent inhibitor 5 was synthesized based on the published route[40] and derivatized with nitrobenzyl chloroformate to produce the photocaged analogue 4 (Scheme S1). […] To test whether active EP300/CREBBP inhibitor release could be controlled by light, we incubated cells with […] (10 or 25 μM), washed to remove inhibitor in media, and irradiated them for 1 min at 302 nm (Fig. 5e). Cells were then incubated for 3 h, harvested, and assessed for changes in EP300/CREBBP-dependent H3K18Ac. […] Although beyond the scope of the current study, we envision targeted release of potent EP300/CREBBP inhibitors could find utility in malignancies already treated using phototherapy, such as head and neck cancers,[41] as well as valuable applications in basic science.[42] […]

[2] = HPLC analysis of photocaged inhibitor release (photodeprotection); format: physicochemical; conditions: 302 nm or 365 nm light, aqueous solution or buffer
From the text: One potential reason EP300/CREBBP acetyltransferase inhibitors are not actively being evaluated in clinical trials is on-target toxicity.[10] Thus, these molecules may benefit from strategies to direct them more specifically to malignant – as opposed to healthy – tissues. Light-activated drug release provides one potential approach.[38] […] Considering the studies above we wondered: could the high potency of the CPI-1612 scaffold enable conditional release of an active EP300/CREBBP inhibitor? To explore this, we prepared a photocaged CPI-1612 analogue (4) (Fig. 5a). […] Parent inhibitor 5 was synthesized based on the published route[40] and derivatized with nitrobenzyl chloroformate to produce the photocaged analogue 4 (Scheme S1). […] Cells were then incubated for 3 h, harvested, and assessed for changes in EP300/CREBBP-dependent H3K18Ac. […]
To assess the ability of 4 to undergo photodeprotection to form 5 in the presence of UV light, we analyzed model reactions by HPLC. […] To assess conversion of 4 to 5, irradiated reactions and controls were analyzed using an Agilent 1260 Infinity HPLC equipped with a Phenomenenex Kinetex C18 column (2.6 μm, 100 Angstrom, 100 × 4.6 mm inner diameter, H20-280322) and UV detector with monitoring at 280 nm. […]

EP300 catalytic domain = molecular target: T1, EP300 catalytic domain (Homo sapiens, UniProt Q09472); test: TR-FRET assay of EP300-catalyzed acetylation of a histone H3 peptide; format: biochemical; conditions: 50 nM H3 peptide and 200 μM acetyl-CoA
T1 construct: disrupt the activity of EP300 catalytic domain; purchased Enzo BML-SE451-0100
T1 sequence (Q09472 1287-1663 limits assumed): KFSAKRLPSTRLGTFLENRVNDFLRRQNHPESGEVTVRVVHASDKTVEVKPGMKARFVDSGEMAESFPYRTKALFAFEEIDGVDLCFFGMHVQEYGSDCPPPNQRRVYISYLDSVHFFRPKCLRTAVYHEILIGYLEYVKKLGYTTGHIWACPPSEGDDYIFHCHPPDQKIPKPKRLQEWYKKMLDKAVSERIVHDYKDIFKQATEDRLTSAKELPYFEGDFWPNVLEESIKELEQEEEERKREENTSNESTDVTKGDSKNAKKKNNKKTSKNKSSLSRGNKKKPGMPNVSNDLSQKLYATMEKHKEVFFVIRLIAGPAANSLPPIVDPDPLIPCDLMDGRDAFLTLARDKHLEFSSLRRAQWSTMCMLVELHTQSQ
Method: Reaction mixtures were incubated for 1 h prior to addition of Alexa Fluor 647-labeled anti-H3K9Ac antibody and Europium-labeled streptavidin.
Briefly, an enzyme mix was made consisting of EP300 (100 nM; Enzo BML-SE451-0100) in assay buffer (25 mM HEPES pH 7.5, 150 mM NaCl, 2 mM DTT, 0.0001% Tween-20, 0.1 mg/m acetylated bovine serum albumin). This enzyme mix (3 μL) was added to white solid-bottom 1536-well plates (Greiner 789175) using a BioRaptr 2.0 Flying Reagent Dispenser (Let’s Go Robotics). […] Plates were read using a PHERAstar FSX microplate reader with HTRF optical module (BMG LabTech) and normalized to no enzyme (negative) and DMSO (neutral) controls. Standard curves were generated through titration of peptide substrate and acetylated peptide [Lys(Ac)9]-Histone H3 (1-21; AnaSpec AS-64191) to benchmark activity. […] Replicate activity measurements in the presence of inhibitors were averaged and half-maximal inhibition values calculated from the nonlinear fit of dose-response data using GraphPad Prism 9.

[3] = set-up: method as in ref 40 = [40]; 40. Wilson J. E.; Brucelle F.; Levelle J. R. P300/CBP HAT inhibitors . WO2019161162A1 , 2019 .; conditions: patent literature; cited from earlier work

Row | Structure (SMILES) | change in H3K18Ac, treated and exposed to light (UV) ([1]; 302 nm 1 min, then 3 h) | change in H3K18Ac, treated only (no irradiation) ([1]; no UV) | photodeprotection to 5 (HPLC reaction monitoring) [2] | decrease in EP300/CREBBP inhibitor potency of caged relative to uncaged analogue 5 (EP300 catalytic domain) | in vivo antitumor activity [3]
1 | COc1cc(COC(=O)N(C[C@@H](C)c2ccc(C#N)cc2)C(C(=O)Nc2ccc(-c3cnn(CC(=O)N4CCCC4)c3)cn2)c2ccccc2)c([N+](=O)[O-])cc1OC (some centres unmarked) [Compound 4] | clear decreases in H3K18Ac | no such effect | facile conversion of 4 to 5 | ~ 50 fold | –
2 | C[C@H](CNC(C(=O)Nc1ccc(-c2cnn(CC(=O)N3CCCC3)c2)cn1)c1ccccc1)c1ccc(C#N)cc1 (some centres unmarked) [Compound 5] | – | – | – | – | potent in vivo antitumor activity
